Legend:
[1] = Inhibition of Protein phosphatase 2B; parameters: species or system Homo sapiens; conditions: read-out: Ki app
[2] = The compound was tested for the inhibition of Protein phosphatase-1 (PP1); conditions: read-out: Ki app

## O=C(CCc1ccccc1)OC[C@H]1C[C@@H]2O[C@H]1[C@H]1C(=O)OC(=O)[C@H]12
[1]
  Ki: 3.7 µM

## O=C(OC[C@H]1C[C@@H]2O[C@H]1[C@H]1C(=O)OC(=O)[C@H]12)c1cccc(Oc2ccccc2)c1
[1]
  Ki: 1.8 µM

## O=C(CCCC1CCCCC1)OC[C@H]1C[C@@H]2O[C@H]1[C@H]1C(=O)OC(=O)[C@H]12
[1]
  Ki: 1 µM

## O=C1OC(=O)[C@@H]2[C@H]1[C@@H]1O[C@H]2C[C@@H]1COC(=O)[C@@H]1C[C@H]1c1ccccc1
[2]
  Ki: 4 µM
[1]
  Ki: 0.5 µM

## O=C(Cc1c[nH]c2ccccc12)OC[C@H]1C[C@@H]2O[C@H]1[C@H]1C(=O)OC(=O)[C@H]12
[1]
  Ki: 2 µM

## O=C(OC[C@H]1C[C@@H]2O[C@H]1[C@H]1C(=O)OC(=O)[C@H]12)c1ccccc1
[1]
  Ki: 11 µM

## O=C(CCCc1ccccc1)OC[C@H]1C[C@@H]2O[C@H]1[C@H]1C(=O)OC(=O)[C@H]12
[1]
  Ki: 1.2 µM

## O=C(OC[C@H]1C[C@@H]2O[C@H]1[C@H]1C(=O)OC(=O)[C@H]12)c1ccc(Oc2ccccc2)cc1
[1]
  Ki: 1.4 µM

## O=C(O)[C@@H]1[C@H](C(=O)O)[C@H]2CC[C@@H]1O2 [ENDOTHALL]
[2]
  Ki: 4 µM
[1]
  Ki: 11.5 µM

## O=C(Cc1ccccc1)OC[C@H]1C[C@@H]2O[C@H]1[C@H]1C(=O)OC(=O)[C@H]12
[1]
  Ki: 7.4 µM

## O=C(CCCCc1ccccc1)OC[C@H]1C[C@@H]2O[C@H]1[C@H]1C(=O)OC(=O)[C@H]12
[1]
  Ki: 2.3 µM

From ChEMBL document CHEMBL1151051, “Structure-based design of novel calcineurin (PP2B) inhibitors” (Bioorg Med Chem Lett, 1997)
